Experimental data taken from patent US20170348213A1, “Oral Care Composition” (Colgate-Palmolive Company, priority 2014, published 2017).

Key:
oral mucosal cells = assay: Cell irritating effect on oral mucosal cells (Janus Green B staining, optical microscope); type: cell-based; details: aqueous solution
Procedure: Aqueous solutions of different concentrations of sodium […] (SLS) and sodium methyl cocoyl taurate (SMCT) were prepared. The solutions were used to challenge oral mucosal cells. Treated cells were stained with Janus Green B and morphological changes were observed using an optical microscope to determine whether or not the cells had become irritated or remained intact. Cells were identified as normal if the cells were in tact, the cell wall was smooth, the color of the cell core was clear/dark, and if organelles could be identified. Cells were identified as irritated if the cells could not be clearly defined with a blurring of the cell wall, if there was crimping of the cell, if the color of the cell core and plasma is lighter than observed for an intact cell, and if organelles could not be identified. […]

[1] = Antioxidant activity, LPO-CC kit (Kamiya Biomedical Company); type: biochemical; details: agent at 1% in ethanol
Procedure: The antioxidant activity of rutin was tested using an LPO-CC kit (Kamiya Biomedical Company), and compared to that of vitamin E. (The agents were tested in an amount of 1% in ethanol). The lower the optical density, the better the antioxidant capacity. The higher the percentage cumeme hydroperoxide reduction, the better the antioxidant capacity. The antioxidant efficacy of the formulations was also tested using the methods described in Example 5. The results are illustrated in Table 9a and 9b.

Row | Substance | Cell irritating effects of aqueous surfactant solutions: Results (oral mucosal cells; 0.48 % active weight surfactant) | Cell irritating effects of aqueous surfactant solutions: Results (oral mucosal cells; 1.40 % active weight surfactant) | Cell irritating effects of aqueous surfactant solutions: Results (oral mucosal cells; 1.71 % active weight surfactant) | Cell irritating effects of aqueous surfactant solutions: Results (oral mucosal cells; 2.20 % active weight surfactant) | % reduction of cumeme hydroperoxide ([1]; higher = better antioxidant capacity) | Optical Density at 675 nm ([1]; lower optical density = better antioxidant capacity)
1 | sodium lauryl ether sulfate [SLS] | No cell irritation | Cells irritated | Cells irritated | Cells irritated | – | –
2 | vitamin E | – | – | – | – | 50.4719% | 0.2204
